Assay results reported in patent EP3643310B1, “COMPOSITION FOR REVERSE CONTROL OF CELLULAR SENESCENCE COMPRISING PDK1 INHIBITOR” (Korea Advanced Institute Of Science And Technology, priority 2018, dated 2020).

Assays:
Assay type in all cases: cell-based, human
senescent fibroblasts [1] = experiment: wound healing assay; details: same senescence/inhibitor conditions; growth-condition medium for 7 days; FIG. 4B
Description: To determine whether the senescent cells subjected to the PDK1 inhibition are reverted to normal young cells, the PDX1 inhibitor BX-795 (Selleckchem) was applied to the senescent fibroblasts. Then, SA β-gal activity assay (senescence-associated β-galactosidase kit), wound healing assay, and fluorescence staining experiments were performed. Thus, the cell cycle change in the senescent cells based on PDK1 Inhibition was checked. Specifically, cellular senescence was caused by exposing the cells for 7 days to culture conditions causing senescence, containing 100 ng/ml of IGF1, 100 ng/ml of doxorubicin, 10 % FBS, and 4.5 g/L of glucose. At this time, most of the cells turned senescent. Then, the PDK1 inhibitor was applied to the same culture condition for 7 days. Total 14 days of the application lapsed. Then, the cells were treated with growth media free of IGF1, doxorubicin, or PDK1 inhibitor. The wound healing assay was performed under the same conditions. Ki-67 expression was analyzed to evaluate the division activity of the cells and the results are shown in 4C.

senescent fibroblasts [2] = experiment: SA β-gal activity assay (senescence-associated β-galactosidase kit)
Description: (§1) To determine whether the senescent cells subjected to the PDK1 inhibition are reverted to normal young cells, the PDX1 inhibitor BX-795 (Selleckchem) was applied to the senescent fibroblasts. Then, SA β-gal activity assay (senescence-associated β-galactosidase kit), wound healing assay, and fluorescence staining experiments were performed. Thus, the cell cycle change in the senescent cells based on PDK1 Inhibition was checked.
(§2) Specifically, cellular senescence was caused by exposing the cells for 7 days to culture conditions causing senescence, containing 100 ng/ml of IGF1, 100 ng/ml of doxorubicin, 10 % FBS, and 4.5 g/L of glucose. At this time, most of the cells turned senescent. Then, the PDK1 inhibitor was applied to the same culture condition for 7 days. Total 14 days of the application lapsed. […] Ki-67 expression was analyzed to evaluate the division activity of the cells and the results are shown in 4C.
(§3) In order to check whether the same result occurs when other PDK1 inhibitors are used, SA β-gal activity assay was performed in the same manner using PDK1 inhibitor 7. […] Therefore, the number of bluestained senescent cells as SA β-gal activity assay-positive and the total number of cells were counted using an optical microscope. […] In addition, fluorescence staining experiments were performed to check the expression of the cell proliferation marker ki-67.

senescent fibroblasts [3] = experiment: ki-67 fluorescence staining (cell division/proliferation marker)
Description: as §1, §2, §3

Compound | cell rejuvenation ability of the senescent cells (wound healing) (senescent fibroblasts [1]) | SA β-gal as an indicator of senescent cells (senescent fibroblasts [2]; senescence induced 7 days with IGF1 100 ng/ml + doxorubicin 100 ng/ml, PDK1 inhibitor applied 7 days, assay one day after change to growth media, FIG. 4A) | ki-67 staining, cell division (senescent fibroblasts [3]; cells treated with growth medium at 7 days after the drug application, FIG. 4C) | reduction of SA β-gal stained cells compared with the PDK1 inhibitor non-treated group (senescent fibroblasts [2]; percentage of blue-stained senescent cells counted by optical microscope, statistically significant, FIG. 5A, 5B) [%] | increase of the number of ki-67 positive cells (senescent fibroblasts [3]; PDK1 inhibitor applied to senescent cells, FIG. 5C, 5D) [%]
O=C(NCCCNc1nc(Nc2cccc(NC(=O)N3CCCC3)c2)ncc1I)c1cccs1 [BX-795] | normalized | significantly reduced | cell division occurred in some of the cells |  | 
O=C(N[C@@H](COc1ccc2[nH]c(=O)[nH]c2c1)c1ccccc1)c1cccn(Cc2ccc(F)c(F)c2)c1=O [PDK1 inhibitor 7] |  |  |  | ≥ 40 | ≥ 20
